Four compounds from patent US12667126B2, “Malonyl steviol glycosides and their comestible use” (Firmenich SA, priority 2020, dated 2026) can be followed below.

The structures appear in SMILES notation.

Assay [1] can be described thus: Sensory testing: sweet capacity in water solution versus sucrose. As to conditions: dosages 62.5 ppm and 250 ppm, ten experts, dosage for equal sweet intensity from sucrose. As to the method:
Malonyl glycosides 101, 102, 104 and 105 were evaluated in water solution at two selected dosages (62.5 ppm and 250 ppm) to identify their sweet capacity. Ten experts were asked to evaluate sweet, licorice, and sweet lingering intensities on a linear scale. Then, the dosage for equal sweet intensity from sucrose was identified. Sweet capacity for each compound was calculated based on dosage difference between tested compound and sucrose.

The nature of assay [2]: Sensory testing as sweet modifier in SG95 base. The settings on record: 30 ppm, seven experts, scale -5 to 5 vs reference; for sweet effect as sweet modifier: SG95 (PureCircle) base; for licorice effect as sweet modifier / sweet lingering effect as sweet modifier: SG95 base. How it is done: Compound 101 was evaluated as a sweet modifier in SG95 (PureCircle) base at 30 ppm. Seven experts were asked to compare the intensity difference between reference (SG95 base) and Compound 101 was added to the sample. The taste properties (such as sweet, licorice, sweet lingering) were evaluated on a scale of −5 to 5 (−5 denoted strong masking effect and 5 denoted strong enhancing effect, 0 being the intensity of reference).
Compound 105 was evaluated as a sweet modifier in SG95 base at 30 ppm. Seven experts were asked to compare the intensity difference between reference (SG95 base) and Compound 105 was added sample. The taste properties (such as sweet, licorice, sweet lingering) were evaluated on a scale of −5 to 5 (−5 denoted strong masking effect and 5 denoted strong enhancing effect, 0 being the intensity of reference).
Compound 104 was evaluated as a sweet modifier in SG95 base at 30 ppm. Seven experts were asked to compare the intensity difference between reference (SG95 base) and Compound 104 adding sample. The taste properties (such as sweet, licorice, sweet lingering) were evaluated on a scale of −5 to 5 (−5 denoted strong masking effect and 5 denoted strong enhancing effect, 0 being the intensity of reference).

In the case of `C=C1C[C@@]23CC[C@H]4[C@@](C)(CCC[C@@]4(C)C(=O)O[C@@H]4O[C@H](CO)[C@@H](O)[C@H](O)[C@H]4O)[C@@H]2CCC1(O[C@@H]1O[C@H](CO)[C@@H](O)[C@H](O)[C@H]1O[C@@H]1O[C@H](COC(=O)CC(=O)O)[C@@H](O)[C@H](O)[C@H]1O)C3` [Compound 105, 6″′-O-malonyl stevioside], the “sweet capacity (times sweeter than sucrose)” value (“sweet capacity” below) in assay [1] is reported as “about 100 times sweeter than sucrose”. For the same compound, the “sweet effect as sweet modifier” value in assay [2] is listed as “sweet enhancement effect”.
`C=C1C[C@@]23CC[C@H]4[C@@](C)(CCC[C@@]4(C)C(=O)O[C@@H]4O[C@H](COC(=O)CC(=O)O)[C@@H](O)[C@H](O)[C@H]4O)[C@@H]2CCC1(O[C@@H]1O[C@H](CO)[C@@H](O)[C@H](O)[C@H]1O)C3` [Compound 104, 6′-O-malonyl rubusoside]: in assay [1], the “sweet capacity” value is “about 120 times sweeter than sucrose”. In addition, in assay [2], the “sweet effect as sweet modifier” value is reported as “sweet enhancement effect”; the “licorice effect as sweet modifier” value is “performed well on tests for licorice and lingering masking effect”; the “sweet lingering effect as sweet modifier” value is “performed well on tests for licorice and lingering masking effect”.
Consider `C=C1C[C@@]23CC[C@H]4[C@@](C)(CCC[C@@]4(C)C(=O)O[C@@H]4O[C@H](COC(=O)CC(=O)O)[C@@H](O)[C@H](O)[C@H]4O)[C@@H]2CCC1(O[C@@H]1O[C@H](CO)[C@@H](O)[C@H](O[C@@H]2O[C@H](CO)[C@@H](O)[C@H](O)[C@H]2O)[C@H]1O[C@@H]1O[C@H](CO)[C@@H](O)[C@H](O)[C@H]1O)C3` [Compound 101, 6′-O-malonyl Rebaudioside A], for which the “sweet capacity” value in assay [1] is recorded as “about 150 times sweeter than sucrose”. Moreover, in assay [2], the “sweet effect as sweet modifier” value is on record as “sweet enhancement effect”; the “licorice effect as sweet modifier” value is “better performance in licorice and sweet lingering masking than Rebaudioside A”; the “sweet lingering effect as sweet modifier” value is “better performance in licorice and sweet lingering masking than Rebaudioside A”.
On to `C=C1C[C@@]2(C)CC[C@H]3[C@@](C)(CCC[C@@]3(C)C(=O)O[C@@H]3O[C@H](COC(=O)CC(=O)O)[C@@H](O)[C@H](O)[C@H]3O)[C@@H]2CCC1(C)O[C@@H]1O[C@H](CO)[C@@H](O)[C@H](O)[C@H]1O[C@@H]1O[C@H](CO)[C@@H](O)[C@H](O)[C@H]1O` (some centres unmarked) [Compound 102, 6′-O-malonyl stevioside], for which, in assay [1], the “sweet capacity” value is recorded as “about 150 times sweeter than sucrose”.
